Columns and labels:
[1] = molecular target: T1, Recombinant PHD2 (Homo sapiens, UniProt Q9GZT9); assay: In vitro PHD2 enzymatic assay (HIF peptide hydroxylation, HPLC); format: biochemical
T1 construct: purchased ActiveMotif, Japan 81065
Experimental: To identify whether TGF-β1 directly affects PHD2 enzymatic activity, we performed an in vitro PHD2 assay using synthetic HIF-1α peptide as a substrate (Fig. 2h). […] To further investigate whether Fe^2+ oxidation impairs PHD2 activity, we introduced H2O2 into the reaction to promote Fe^2+ oxidation.
A reaction mixture (30 µL total volume) containing 300 µM HIF peptide, 1 µM recombinant PHD2, 20 mM Tris-HCl (pH 7.5), 1 mM DTT, 300 µM ascorbic acid, 5 mM KCl, 1.5 mM MgCl2, 50 µM Fe(SO4)·6H2O, and 300 µM α-ketoglutarate was incubated at 30 °C for 2 hr. The reaction was terminated by adding an equal volume (30 µL) of DMSO. Product analysis was carried out on Waters 2998 HPLC system equipped with a photodiode array detector and an XBridge™ BEH C18 column (4.6 × 250 mm, 5 µm), detecting at 280 nm. A hydroxylated HIF peptide served as a reference standard.

[2] = system: A549; assay: Western blot of HIF-1α, fibrosis and EMT markers in A549; format: cell-based, human; conditions: for HIF-1α and COL4A6 levels (Western blot): A549, TGF-β1 co-treatment
[3] = system: HIF-1α–EGFP in A549; assay: pg-HIF-1α–EGFP fluorescence in transfected A549; format: cell-based, human; conditions: A549, co-treatment with TGF-β1
Experimental: pg-HIF-1α–EGFP was introduced via jetOPTIMUS®; GFP fluorescence was quantified 48 h post-transfection.
Transient transfection of A549 cells with pg-HIF-1α–EGFP was performed using jetOPTIMUS® according to the manufacturer’s protocol. Following 48 hr of transfection, the medium was replaced, and cells were treated with TGF-β1 at the specified concentration and duration before further analysis. Cell imaging was performed using an EVOS™ M7000 at 10×, 20×, or 40× magnification. GFP fluorescence intensity was measured using ImageJ. The mean fluorescence within the regions of interest (ROIs) was calculated after background subtraction, and values were normalized to the control condition

[4] = system: A549; assay: Scratch migration assay; format: cell-based, human; conditions: CoCl2 or FG-4592 treatment
[5] = system: BLM-induced pulmonary fibrosis; assay: RT-qPCR of lung tissue in BLM-treated mice; format: in vivo, ICR mice; conditions: BLM 30 mg/kg; ACF-2 10 mg/kg i.p. every 2 days or NIDB 60 mg/kg/day
Experimental: Total RNA (AccuPrep®) was reverse-transcribed and amplified with SYBR Green chemistry on a StepOnePlusTM system; relative expression was calculated by ΔΔCt. Male ICR mice received BLM (30 mg/kg, intratracheal). […] Total RNA was extracted from both cultured cells and mouse lung tissue using the AccuPrep® Universal RNA Extraction Kit. […] RT-qPCR was performed using iTaqTM Universal SYBR® Green Supermix on a StepOnePlusTM Real-Time PCR System. […] All animal studies were approved by the Institutional Animal Care and Use Committee of Jeju National University (Approval ID: 2024-0058) and conducted in compliance with institutional guidelines. Male ICR mice (6 weeks old, average body weight 27 g) were purchased from […] (South Korea) and housed under controlled temperature (22 ± 2 °C) and humidity (0.0 ± 15.0 %) on a 12 hr light-dark cycle with free access to food and water.

[6] = system: colon; assay: Colonic histopathology in the BLM mouse study; format: in vivo, ICR mice; conditions: BLM mice; ACF-2 10 mg/kg i.p. every 2 days or NIDB 60 mg/kg/day
Excerpt: Fixed left lung lobes were paraffin-embedded, sectioned (4 μm), and stained with H&E or MT. A blinded pathologist graded pulmonary fibrosis on the 1-8 Ashcroft scale; representative images illustrate typical lesions. Colon samples were processed by the swiss-roll method, stained with H&E, and scored for inflammation and erosion, which were combined into a composite histological score. All animal studies were approved by the Institutional Animal Care and Use Committee of Jeju National University (Approval ID: 2024-0058) and conducted in compliance with institutional guidelines. Male ICR mice (6 weeks old, average body weight 27 g) were purchased from […] (South Korea) and housed under controlled temperature (22 ± 2 °C) and humidity (0.0 ± 15.0 %) on a 12 hr light-dark cycle with free access to food and water. […] Colon tissue: Colons were harvested, flushed with 1xPBS, and prepared using the swiss-roll method before embedding in paraffin. Sections of 4 μm thickness were subjected to H&E staining as described above. Colonic injury was evaluated by two independent parameters: (i) inflammation score (0-3) and (ii) erosion score (0-3). A composite histological score was then calculated as the sum of inflammation and erosion scores for each sample.

[7] = system: BLM-induced pulmonary fibrosis; assay: BLM-induced pulmonary fibrosis, Ashcroft scoring of lung sections; format: in vivo, ICR mice; conditions: BLM 30 mg/kg intratracheal; ACF-2 10 mg/kg i.p. every 2 days or NIDB 60 mg/kg/day in drinking water, 2 weeks; BLM-only 6.2
Experimental: Male ICR mice received BLM (30 mg/kg, intratracheal). […] Fixed left lung lobes were paraffin-embedded, sectioned (4 μm), and stained with H&E or MT. A blinded pathologist graded pulmonary fibrosis on the 1-8 Ashcroft scale; representative images illustrate typical lesions. Colon samples were processed by the swiss-roll method, stained with H&E, and scored for inflammation and erosion, which were combined into a composite histological score. All animal studies were approved by the Institutional Animal Care and Use Committee of Jeju National University (Approval ID: 2024-0058) and conducted in compliance with institutional guidelines. Male ICR mice (6 weeks old, average body weight 27 g) were purchased from […] (South Korea) and housed under controlled temperature (22 ± 2 °C) and humidity (0.0 ± 15.0 %) on a 12 hr light-dark cycle with free access to food and water. […] Lung tissue: Left lung lobes were fixed in 4% paraformaldehyde for 24 h, dehydrated, and embedded in paraffin. Sections of 4 μm thickness were prepared, deparaffinized with xylene, and rehydrated in a graded ethanol series. H&E staining was performed using hematoxylin and eosin solutions, respectively. The severity of fibrosis was graded according to the Ashcroft scale (1-8), as evaluated by a pathologist blindly. Representative H&E images were chosen to illustrate the most characteristic pathology. […]

T1 sequence (Q9GZT9 whole entry): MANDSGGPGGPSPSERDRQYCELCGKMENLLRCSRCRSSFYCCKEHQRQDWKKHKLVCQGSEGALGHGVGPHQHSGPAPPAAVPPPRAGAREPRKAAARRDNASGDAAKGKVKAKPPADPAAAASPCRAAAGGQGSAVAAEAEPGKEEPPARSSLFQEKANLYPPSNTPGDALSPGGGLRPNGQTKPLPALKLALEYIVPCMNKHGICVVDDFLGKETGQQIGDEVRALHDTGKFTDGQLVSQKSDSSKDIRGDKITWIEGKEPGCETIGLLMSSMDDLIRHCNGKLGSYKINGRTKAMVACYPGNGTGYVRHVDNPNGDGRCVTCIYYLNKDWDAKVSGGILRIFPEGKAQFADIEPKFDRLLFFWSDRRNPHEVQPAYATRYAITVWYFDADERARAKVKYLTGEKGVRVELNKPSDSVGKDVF

For `O.Oc1cc(O)c2c(c1)O[C@H](c1ccc(O)c(O)c1)[C@@H](O)C2` [Catechin], the “effect on PHD2 activity” value ([1]; ambient air, comparable concentrations to ACF-2) was “failed to preserve or enhance PHD2 activity”.
For `c1ccc2c(c1)[I+]c1ccccc1-2` [DPI, diphenyleneiodonium chloride, reference compound], the “HIF-1α and COL4A6 levels (Western blot)” value [2] was “markedly reduced HIF-1α and COL4A6 levels” and the “TGF-β1–induced HIF-1α–EGFP GFP fluorescence intensity” value [3] was “substantial drop in GFP intensity”.
In the case of `Cc1nc(C(=O)NCC(=O)O)c(O)c2ccc(Oc3ccccc3)cc12` [FG-4592], the “fibrosis-associated proteins (fibronectin, α-SMA, COL3A1, COL4A6)” value ([2]; A549, ambient air, CoCl2 200 μM, FG-4592 50 μM) is reported as “increased expression of fibrosis-associated proteins” and the “cell migration (wound healing)” value [4] is reported as “significant increase in cell migration”.
For `OO` [H2O2], the “effect on PHD2 activity (H2O2 added to the reaction)” value ([1]; H2O2 introduced to promote Fe2+ oxidation) was “inhibited PHD2 activity in a dose-dependent manner”.
In the case of `COC(=O)c1ccc2c(c1)NC(=O)/C2=C(\Nc1ccc(N(C)C(=O)CN2CCN(C)CC2)cc1)c1ccccc1` [NIDB, nintedanib, reference compound], the “TGF-β1 (Tgfb1) expression in lung (RT-qPCR)” value [5] is reported as “markedly reduced”, the “composite histological score of colon (inflammation + erosion)” value [6] is reported as “significantly increased the composite histological score” and the “Average Ashcroft score” value [7] is reported as 3.8.
For `CN(C)c1cccc(-c2c3c(=O)n(-c4ccccc4Cl)[nH]c3cc(=O)n2C)c1` [Setanaxib], the “HIF-1α and COL4A6 levels (Western blot)” value [2] was “markedly reduced HIF-1α and COL4A6 levels”.
For `COc1cc(C(C)=O)ccc1O` [apocynin], the “HIF-1α and COL4A6 levels (Western blot)” value [2] was “markedly reduced HIF-1α and COL4A6 levels”.
